Measurements: ChEMBL document CHEMBL1141539, “Neutral 5-substituted 4-indazolylaminoquinazolines as potent, orally active inhibitors of erbB2 receptor tyrosine kinase” (Bioorg Med Chem Lett, 2008)
In brackets after ≈: the same amount, converted by molar mass. One block for each compound: values may come before it.

Assays:
[1] = Solubility in aqueous phosphate buffer at pH 7.4 after 24 hrs; type: physicochemical
[2] = Volume of distribution at steady state in dog at 1 mg/kg, iv and 2 mg/kg, po; type: ADME, organism-based, Canis lupus familiaris; conditions: in vivo, read-out: Vdss
[3] = Oral bioavailability in rat at 2 mg/kg; type: ADME, organism-based; conditions: in vivo
[4] = test system: Phospholipidosis; assay: In vivo phospholipidosis in rat; type: ADME, organism-based
[5] = Distribution coefficient, log D at pH 7.4; type: physicochemical; conditions: octanol/water
[6] = Volume of distribution at steady state in rat at 1 mg/kg, iv and 2 mg/kg, po; type: ADME, organism-based; conditions: in vivo, read-out: Vdss
[7] = Oral bioavailability in dog at 2 mg/kg, po; type: ADME, organism-based, Canis lupus familiaris; conditions: in vivo
[8] = Permeability across dog MDCK-MDR cell membrane; type: ADME, cell-based, Canis lupus familiaris; conditions: MDCK-MDR1

SMILES: C[C@@H](Oc1cccc2ncnc(Nc3ccc4c(cnn4Cc4ccccn4)c3)c12)C(N)=O
solubility at 24 h [1]: 3 µM (≈ 1.32 µg/mL)

SMILES: C[C@@H](Oc1cccc2ncnc(Nc3ccc4c(cnn4Cc4cccc(F)c4)c3)c12)C(=O)N(C)C
solubility at 24 h [1]: 3 µM (≈ 1.45 µg/mL)

SMILES: C[C@@H](Oc1cccc2ncnc(Nc3ccc4c(cnn4Cc4nccs4)c3)c12)C(=O)N(C)C
solubility at 24 h [1]: 29 µM (≈ 13.7 µg/mL)

SMILES: C[C@@H](Oc1cccc2ncnc(Nc3ccc4c(cnn4Cc4ccccn4)c3)c12)C(=O)N(C)C
Vd [2]: 2.3 L/kg
bioavailability [3]: 36%
solubility at 24 h [1]: 270 µM (≈ 126 µg/mL)
logD [5]: 2.9
Vd [6]: 2.1 L/kg
bioavailability [7]: 40%

Second part, led by results:

solubility at 24 h [1]: 4 µM (≈ 1.81 µg/mL)
SMILES: CNC(=O)[C@@H](C)Oc1cccc2ncnc(Nc3ccc4c(cnn4Cc4ccccn4)c3)c12

solubility at 24 h [1]: 44 µM (≈ 20.8 µg/mL)
SMILES: C[C@@H](Oc1cccc2ncnc(Nc3ccc4c(cnn4Cc4cscn4)c3)c12)C(=O)N(C)C

Vd [2]: 3.1 L/kg
bioavailability [3]: 50%
solubility at 24 h [1]: 101 µM (≈ 52.1 µg/mL)
logD [5]: 2.6
Vd [6]: 2 L/kg
bioavailability [7]: 36%
Papp [8]: 10 ×10⁻⁶ cm/s
SMILES: C[C@@H](Oc1cccc2ncnc(Nc3ccc4c(cnn4Cc4nccs4)c3)c12)C(=O)N1CCOCC1
Phospholipidosis [4]: Not Active
